Laboratory results reported in patent US20150306269A1, “UPSTREAM HYDROGEN PEROXIDE […]” (The Vincit Company, LLC, priority 2014, published 2015).

Legend:
bacteria [1] = assay: Chicken wings: total plate count of inoculated chicken wing skin after exposure to treated air; type: cell-based; conditions: chicken wings inoculated in Tryptic Soy Broth with about seven log bacteria; maximum over 10, 30, 45 and 60 seconds treatment; nebulized 3% hydrogen peroxide; Tryptic Soy Agar, 24 hours
Protocol: Similar testing was performed on chicken wings. Twenty-four store-bought chicken wings were prepared by submersing them in a Tryptic Soy Broth broth solution containing about a seven log concentration of bacteria. The wings were removed and allowed to air dry. The wings were separated into groups of six, one group designated to be exposed to air running through the air sanitation system containing only nebulized 3% hydrogen peroxide, another group exposed to UV light-generated radicals, and the last group exposed to both 3% H2O2 and UV radicals. The final six wings were designated the control group and were exposed only to untreated air circulated though the sanitation system.
Immediately following treatment at times of 10 seconds, 30 seconds, 45 seconds and 60 seconds, approximately 1 square inch of skin on each wing was swabbed with moistened sample sponges. The sponges were stomached in phosphate buffer solution for 2 minutes, then the buffer solution was serially diluted and plated on Tryptic Soy Agar and incubated for 24 hours to obtain a total plate count.

bacteria [2] = assay: Egg shell testing: total plate count of inoculated egg shells after exposure to treated air; type: cell-based; conditions: half egg shells inoculated in broth with about seven log bacteria; 10 minutes exposure; nebulized 3% hydrogen peroxide; swab plated on Tryptic Soy Agar, 24 hours
Protocol: In preliminary testing, twelve store-bought fresh eggs were prepared by blowing out the contents and cutting the egg shells in half. Twenty-four half shells were inoculated by submersion in a broth solution containing about a seven log concentration bacteria. Egg shells were removed and allowed to air dry. […] The final six shells were designated the control group and were exposed only to untreated air circulated though the sanitation system. The twenty-four half shells were allowed to be exposed to their respective situation for a period of 10 minutes.
Immediately following treatment, approximately 1 square inch swab samples were taken from the surface of each egg shell then serially diluted and plated on Tryptic Soy Agar and incubated for 24 hours to obtain a total plate count.

OO [H2O2, hydrogen peroxide]
maximum log10 reduction (total plate count) (bacteria [1]): 0.9 log10 | log10 reduction (total plate count) (bacteria [2]): 1.5 log10
